From BindingDB's records for doi:10.1021/jm00061a022 (Merck Research Laboratories, 1993)

Key:
Experiment in all cases: HIV-1 RT Assay
Settings in all cases: pH 8.2
[1] = biological target: Gag-Pol polyprotein [588-1027]/[588-1147] (Human immunodeficiency virus 1, UniProt P04585)
[2] = biological target: Gag-Pol polyprotein [588-1027,K690N]/[588-1147,K690N] (Human immunodeficiency virus 1, UniProt P04585, K690N)
[3] = biological target: Gag-Pol polyprotein [588-1127,Y768C]/[588-1147,Y768C] (Human immunodeficiency virus 1, UniProt P04585, Y768C)

Compound | IC50 [1] [nM] | IC50 [2] [nM] | IC50 [3] [nM]
CNC(=O)c1[nH]c2ccccc2c1Sc1ccccc1 [N-methyl-3-(phenylsulfanyl)-1H-indole-2-carboxamide] | 746 | – | –
NC(=O)c1[nH]c2ccc(Cl)cc2c1[S+]([O-])c1ccccc1 (configuration not stated) [3-(benzenesulfinyl)-5-chloro-1H-indole-2-carboxamide] | 23 | 2760 | 1390
NC(=O)c1[nH]c2ccc(Cl)cc2c1Sc1ccccc1 [5-chloro-3-(phenylsulfanyl)-1H-indole-2-carboxamide] | 14 | 1460 | 1040
CN(C)C(=O)c1[nH]c2ccccc2c1Sc1ccccc1 [N,N-dimethyl-3-(phenylsulfanyl)-1H-indole-2-carboxamide] | 87600 | – | –
COC(=O)c1[nH]c2ccc(Cl)cc2c1Sc1ccccc1 [methyl 5-chloro-3-(phenylsulfanyl)-1H-indole-2-carboxylate] | 156 | – | –
[O-][S+](Cc1[nH]c2ccccc2c1[S+]([O-])c1ccccc1)c1ccccc1 (configuration not stated) [3-(benzenesulfinyl)-2-[(benzenesulfinyl)methyl]-1H-indole] | 72800 | – | –
[O-][S+](Cc1[nH]c2ccc(Cl)cc2c1Sc1ccccc1)c1ccccc1 (configuration not stated) [2-[(benzenesulfinyl)methyl]-5-chloro-3-(phenylsulfanyl)-1H-indole] | 112 | – | –
CC(C)=CCN1Cc2cc(Cl)cc3[nH]c(=S)n(c23)C[C@@H]1C [(11S)-6-chloro-11-methyl-10-(3-methylbut-2-en-1-yl)-1,3,10-triazatricyclo[6.4.1.0^{4,13}]trideca-4,6,8(13)-triene-2-thione] | 311 | 7320 | 39500
NC(=O)c1[nH]c2ccc(Cl)cc2c1S(=O)(=O)c1ccccc1 [5Cl3PhSO2-2IndolCONH2] | 3 | 116 | 71
[O-][S+](Cc1[nH]c2ccccc2c1Sc1ccccc1)c1ccccc1 (configuration not stated) [2-[(benzenesulfinyl)methyl]-3-(phenylsulfanyl)-1H-indole] | 63 | 2570 | 2990
CNC(=O)c1[nH]c2ccc(Cl)cc2c1Sc1ccccc1 [5-chloro-N-methyl-3-(phenylsulfanyl)-1H-indole-2-carboxamide] | 22 | – | –
COC(=O)c1[nH]c2ccccc2c1Sc1ccccc1 [methyl 3-(phenylsulfanyl)-1H-indole-2-carboxylate] | 2500 | – | –
